Reference: ChEMBL document CHEMBL1255520, “Azole derivatives as histamine H3 receptor antagonists, part I: thiazol-2-yl ethers” (Bioorg Med Chem Lett, 2010)

Target: Histamine H3 receptor (Homo sapiens, UniProt Q9Y5N1)
Test: Displacement of [125I]iodoproxyfan human histamine H3 receptor

Chain of Histamine H3 receptor (Q9Y5N1 whole entry): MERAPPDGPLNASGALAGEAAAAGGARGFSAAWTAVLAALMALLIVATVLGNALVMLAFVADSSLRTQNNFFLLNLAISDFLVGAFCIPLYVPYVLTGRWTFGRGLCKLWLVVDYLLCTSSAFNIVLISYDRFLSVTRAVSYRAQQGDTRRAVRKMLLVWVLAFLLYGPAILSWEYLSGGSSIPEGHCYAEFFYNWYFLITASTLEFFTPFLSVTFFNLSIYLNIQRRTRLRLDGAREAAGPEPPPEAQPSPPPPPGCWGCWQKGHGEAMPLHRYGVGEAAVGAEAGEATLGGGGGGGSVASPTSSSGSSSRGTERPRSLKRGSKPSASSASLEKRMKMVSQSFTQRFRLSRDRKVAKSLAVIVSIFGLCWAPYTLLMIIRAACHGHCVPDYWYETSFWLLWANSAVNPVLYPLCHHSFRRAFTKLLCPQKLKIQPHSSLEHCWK

Compound	Ki [nM]
CN(C)CCCOc1nc2c(s1)CCOC2	> 1000
CN(C)CCCOc1nc2c(s1)CCCC2=O	153
CN1CCc2sc(OCCCN3CCCCC3)nc2C1	24
O=C1CCCc2sc(OCCCN3CCCCC3)nc21	> 1000
CCN1CCc2sc(OCCCN3CCCCC3)nc2C1	14
c1ccc(CN2CCc3sc(OCCCN4CCCCC4)nc3C2)cc1	261
C1CCN(CCCOc2nc3c(s2)CCN(CCCN2CCCCC2)C3)CC1	20
Brc1nc(OCCCN2CCCCC2)sc1-c1ccccc1	93

Next, values leading:

Ki [nM]	Compound
257	CN(C)CCCOc1nc2c(s1)CCN(C)C2
> 1000	CN(C)CCCOc1nc2c(s1)CCCC2
357	C1CCN(CCCOc2nc3c(s2)CCCC3)CC1
344	C1CCN(CCCOc2nc3c(s2)CCOC3)CC1
155	CC(=O)c1nc(OCCCN2CCCCC2)sc1C
41	Cc1nc(OCCCN2CCCCC2)sc1-c1ccccc1
11.2	c1ccc(-c2nc(OCCCN3CCCCC3)sc2-c2ccccc2)cc1
